In this experiment the target is recombinant human mGluR2 (Homo sapiens (Human), UniProt Q14416). The experiment can be described thus: FLIPR Ca2+ mobilization antagonist assay in CHO dhfr- cells expressing human mGluR2 and Gα16. Conditions: antagonist response after addition of 2,500 nM glutamate, Fluo-4 AM, FLIPR384. The experiment is classed as cell-based. Put shortly: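 CHO dhfr- cells stably co-expressing human mGluR2 and Gα16, Fluo-4 AM loaded, preincubated with compound, then challenged with 2,500 nM glutamate; Ca2+ response read by FLIPR. Maximum calcium response vs concentration fitted to four-parameter logistic for IC50.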
Background: Calcium assays in cells follow changes in intracellular calcium, usually with a dye or a luminescent sensor.

Chain of recombinant human mGluR2 (Q14416 19-872): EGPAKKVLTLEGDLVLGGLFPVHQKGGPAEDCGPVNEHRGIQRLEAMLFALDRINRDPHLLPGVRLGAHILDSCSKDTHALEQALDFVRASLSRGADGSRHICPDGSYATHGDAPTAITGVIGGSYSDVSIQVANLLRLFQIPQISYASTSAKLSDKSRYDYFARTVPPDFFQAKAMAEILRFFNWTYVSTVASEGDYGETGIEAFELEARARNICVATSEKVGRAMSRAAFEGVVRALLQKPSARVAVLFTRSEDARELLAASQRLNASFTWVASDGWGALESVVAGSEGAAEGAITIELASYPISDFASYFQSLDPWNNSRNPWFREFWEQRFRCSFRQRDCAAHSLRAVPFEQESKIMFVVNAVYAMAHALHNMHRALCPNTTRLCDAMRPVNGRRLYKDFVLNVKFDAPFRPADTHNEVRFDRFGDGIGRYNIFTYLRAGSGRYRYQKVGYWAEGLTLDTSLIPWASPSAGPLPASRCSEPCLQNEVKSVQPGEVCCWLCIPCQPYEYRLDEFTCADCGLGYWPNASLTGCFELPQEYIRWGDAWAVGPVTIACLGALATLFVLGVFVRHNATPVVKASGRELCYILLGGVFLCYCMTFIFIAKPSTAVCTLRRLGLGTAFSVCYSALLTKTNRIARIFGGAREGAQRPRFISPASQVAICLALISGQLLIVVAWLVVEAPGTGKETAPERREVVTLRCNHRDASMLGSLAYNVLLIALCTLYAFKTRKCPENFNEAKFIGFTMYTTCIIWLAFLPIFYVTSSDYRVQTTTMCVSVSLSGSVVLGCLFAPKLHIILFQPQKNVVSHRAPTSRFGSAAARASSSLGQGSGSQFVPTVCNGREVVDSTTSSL

As for `CC(c1ccnc(C(F)(F)F)c1)N1CCc2c(-c3cnn(C(F)F)c3)cc(C(N)=O)nc2C1` (single isomer, unassigned) [Example 7-3B, (R) or (S)-4-[1-(difluoromethyl)-1H-pyrazol-4-yl]-7-{(1S)-1-[2-(trifluoromethyl)pyridin-4-yl]ethyl}-5,6,7,8-tetrahydro-1,7-naphthyridine-2-carboxamide], the IC50 is 21.2 nM.
Take `CS(=O)(=O)c1cccc(CN2CCc3c(-c4ccc(F)cc4)cc(C(N)=O)nc3C2)c1` [Example 2-6, 4-(4-fluorophenyl)-7-[3-(methylsulfonyl)benzyl]-5,6,7,8-tetrahydro-1,7-naphthyridine-2-carboxamide]: the IC50 is 23 nM.
For the molecule `Cc1nc(CN2CCc3c(-c4ccc(Cl)cc4F)cc(C(N)=O)nc3C2)no1` [Example 9-2, 4-(4-chloro-2-fluorophenyl)-7-[(5-methyl-1,2,4-oxadiazol-3-yl)methyl]-5,6,7,8-tetrahydro-1,7-naphthyridine-2-carboxamide], the IC50 amounted to 9.7 nM.
`NC(=O)c1cc(N2CCC3(CC2)CC3)c2c(n1)CN(Cc1cc(C(F)(F)F)ncn1)CC2` [Example 12-5, 4-(6-azaspiro[2.5]oct-6-yl)-7-{[6-(trifluoromethyl)pyrimidin-4-yl]methyl}-5,6,7,8-tetrahydro-1,7-naphthyridine-2-carboxamide]: the 50% inhibitory concentration (IC50) is 20.4 nM.
For `CC(c1cnnn1C)N1CCc2c(-c3ccc(F)cc3F)cc(C(N)=O)nc2C1` (single isomer, unassigned) [Example 7-1, (S) or (R)-4-(2,4-difluorophenyl)-7-(1-(1-methyl-1H-1,2,3-triazol-5-yl)ethyl)-5,6,7,8-tetrahydro-1,7-naphthyridine-2-carboxamide], the IC50 was determined as 37.4 nM.
With `CC1c2nc(C(N)=O)cc(-c3ccc(F)cc3F)c2CCN1Cc1ccnn1C(C)C` (single isomer, unassigned) [Example 1-15B, (R) or (S)-4-(2,4-difluorophenyl)-8-methyl-7-{[1-(1-methylethyl)-1H-pyrazol-5-yl]methyl}-5,6,7,8-tetrahydro-1,7-naphthyridine-2-carboxamide], the IC50 is 5.3 nM.
In the case of `NC(=O)c1cc(N2CCCC3(CC3)C2)c2c(n1)CN(Cc1ccnc(C(F)(F)F)c1)CC2` [Example 5-4, 4-(5-azaspiro[2.5]oct-5-yl)-7-{[2-(trifluoromethyl)pyridin-4-yl]methyl}-5,6,7,8-tetrahydro-1,7-naphthyridine-2-carboxamide], the 50% inhibitory concentration (IC50) is 29 nM.
With `NC(=O)c1cc(-c2c(F)cc(F)cc2F)c2c(n1)CN(Cc1ccnc(C(F)(F)F)n1)CC2` [Example 11-6, 7-{[2-(trifluoromethyl)pyrimidin-4-yl]methyl}-4-(2,4,6-trifluorophenyl)-5,6,7,8-tetrahydro-1,7-naphthyridine-2-carboxamide], the IC50 stood at 13.2 nM.
Under `COc1cc(C(N2CCc3c(-c4cnn(C)c4)cc(C(N)=O)nc3C2)C(F)(F)F)ccn1` (racemic) [Example 3-2B, (S) and (R)-4-(1-methyl-1H-pyrazol-4-yl)-7-(2,2,2-trifluoro-1-(2-methoxypyridin-4-yl)ethyl)-5,6,7,8-tetrahydro-1,7-naphthyridine-2-carboxamide] stands 11.4 nM.
Under `Cn1nccc1CN1CCc2c(-c3ccc(Cl)cc3F)cc(C(N)=O)nc2C1` [Example 1-8, 4-(4-chloro-2-fluorophenyl)-7-[(1-methyl-1H-pyrazol-5-yl)methyl]-5,6,7,8-tetrahydro-1,7-naphthyridine-2-carboxamide] stands 8.7 nM; under `NC(=O)c1cc(-c2ccc(F)cc2F)c2c(n1)CN(C(CO)c1ccccc1)CC2` (racemic) [Example 8-2B, (S) and (R)-4-(2,4-difluorophenyl)-7-(2-hydroxy-1-phenylethyl)-5,6,7,8-tetrahydro-1,7-naphthyridine-2-carboxamide], 11.5 nM; under `Cn1nnnc1CN1CCc2c(-c3ccc(F)cc3F)cc(C(N)=O)nc2C1` [Example 2-18, 4-(2,4-difluorophenyl)-7-[(1-methyl-1H-tetrazol-5-yl)methyl]-5,6,7,8-tetrahydro-1,7-naphthyridine-2-carboxamide], 49.5 nM.
As for `CC1(C)CC(CN2CCc3c(-c4ccc(F)cc4F)cc(C(N)=O)nc3C2(C)C)CCO1` (racemic) [Example 1-23B, (R) and (S)-4-(2,4-difluorophenyl)-7-((2,2-dimethyltetrahydro-2H-pyran-4-yl)methyl)-8,8-dimethyl-5,6,7,8-tetrahydro-1,7-naphthyridine-2-carboxamide], the figure is 28.5 nM.
In the case of `CC(c1ccnn1C)N1CCc2c(-c3ccc(F)cc3F)cc(C(N)=O)nc2C1` (single isomer, unassigned) [Example 7-4, (S) or (R)-4-(2,4-difluorophenyl)-7-[(1S)-1-(1-methyl-1H-pyrazol-5-yl)ethyl]-5,6,7,8-tetrahydro-1,7-naphthyridine-2-carboxamide], the IC50 came to 20.1 nM.
Take `NC(=O)c1cc(-c2ccc(F)cc2)c2c(n1)CN(C[C@@H]1CCO[C@H](C3CC3)C1)CC2` [Example 1-2A, 7-(((2S,4R)-2-cyclopropyltetrahydro-2H-pyran-4-yl)methyl)-4-(4-fluorophenyl)-5,6,7,8-tetrahydro-1,7-naphthyridine-2-carboxamide]: the IC50 worked out at 129 nM.
As for `Cc1ncc(-c2cc(C(N)=O)nc3c2CCN(Cc2ccnn2C)C3)s1` [Example 6-4, 7-[(1-methyl-1H-pyrazol-5-yl)methyl]-4-(2-methyl-1,3-thiazol-5-yl)-5,6,7,8-tetrahydro-1,7-naphthyridine-2-carboxamide], the IC50 was determined as 119 nM.
Regarding `Cc1cc(CN2CCc3c(-c4ccc(F)cc4F)cc(C(N)=O)nc3C2)n(C)n1` [Example 1-7, 4-(2,4-difluorophenyl)-7-[(1,3-dimethyl-1H-pyrazol-5-yl)methyl]-5,6,7,8-tetrahydro-1,7-naphthyridine-2-carboxamide], the IC50 worked out at 13.8 nM.
Turning to `NC(=O)c1cc(-c2c(F)cc(F)cc2F)c2c(n1)CN(Cc1cc(C(F)(F)F)ncn1)CC2` [Example 11-11, 7-{[6-(trifluoromethyl)pyrimidin-4-yl]methyl}-4-(2,4,6-trifluorophenyl)-5,6,7,8-tetrahydro-1,7-naphthyridine-2-carboxamide], the concentration for half-maximal inhibition (IC50) is 26.1 nM.
As to `CC1c2nc(C(N)=O)cc(N3CCCCC3)c2CCN1Cc1ccnn1C(C)C` (single isomer, unassigned) [Example 1-19, (S) or (R)-8-methyl-7-{[1-(1-methylethyl)-1H-pyrazol-5-yl]methyl}-4-piperidin-1-yl-5,6,7,8-tetrahydro-1,7-naphthyridine-2-carboxamide], the half-inhibitory concentration (IC50) came to 13.2 nM.
As for `CC1CCCN(c2cc(C(N)=O)nc3c2CCN(Cc2ccnc(C(F)(F)F)c2)C3)C1` (single isomer, unassigned) [Example 5-5A, (S) or (R)-4-(3-methylpiperidin-1-yl)-7-((2-(trifluoromethyl)pyridin-4-yl)methyl)-5,6,7,8-tetrahydro-1,7-naphthyridine-2-carboxamide], the figure is 18.4 nM; as for `COc1cc(C(N2CCc3c(-c4cnn(C)c4)cc(C(N)=O)nc3C2)C(F)(F)F)ccn1` (racemic) [Example 3-2A, (S) and (R)-4-(1-methyl-1H-pyrazol-4-yl)-7-(2,2,2-trifluoro-1-(2-methoxypyridin-4-yl)ethyl)-5,6,7,8-tetrahydro-1,7-naphthyridine-2-carboxamide], 9.6 nM.
As for `NC(=O)c1cc(-c2ccc(F)cc2F)c2c(n1)CN(CC(O)c1ccccc1)CC2` (single isomer, unassigned) [Example 8-3A, (S) or (R)-4-(2,4-difluorophenyl)-7-[(2S or 2R)-2-hydroxy-2-phenylethyl]-5,6,7,8-tetrahydro-1,7-naphthyridine-2-carboxamide], the figure is 18.5 nM; as for `CC1(C)CC(O)(CN2CCc3c(-c4ccc(F)cc4F)cc(C(N)=O)nc3C2(C)C)CO1` (single isomer, unassigned) [Example 15-1B], 23.6 nM.
Consider `CC1(C)CC(F)(CN2CCc3c(-c4ccc(F)cc4F)cc(C(N)=O)nc3C2)CO1` (single isomer, unassigned) [Example 14-1B], for which the IC50 was found to be 17.8 nM.
For the molecule `CC1(C)CC(O)(CN2CCc3c(-c4ccc(F)cc4F)cc(C(N)=O)nc3C2)CCO1` (single isomer, unassigned) [Example 14-2A], the IC50 turned out to be 31.7 nM.
Consider `NC(=O)c1cc(N2CCCC(F)C2)c2c(n1)CN(Cc1ccnc(C(F)(F)F)c1)CC2` (single isomer, unassigned) [Example 5-6A, (S) or (R)-4-(3-fluoropiperidin-1-yl)-7-((2-(trifluoromethyl)pyridin-4-yl)methyl)-5,6,7,8-tetrahydro-1,7-naphthyridine-2-carboxamide], for which the IC50 worked out at 21.4 nM.
For `CN1CCN(c2cc(C(N)=O)nc3c2CCN(Cc2ccnc(C(F)(F)F)c2)C3)CC1C(F)(F)F` (single isomer, unassigned) [Example 5-9, (S) or (R)-4-(4-methyl-3-(trifluoromethyl)piperazin-1-yl-7-((2-(trifluoromethyl)pyridin-4-yl)methyl)-5,6,7,8-tetrahydro-1,7-naphthyridine-2-carboxamide], the IC50 amounted to 92.7 nM.
Under `NC(=O)c1cc(-c2ccc(Cl)cc2F)c2c(n1)CN(Cc1cccnc1)CC2` [Example 10-3, 4-(4-chloro-2-fluorophenyl)-7-(pyridin-3-ylmethyl)-5,6,7,8-tetrahydro-1,7-naphthyridine-2-carboxamide] stands 12 nM.
Regarding `CC1(C)CC(O)(CN2CCc3c(-c4ccc(F)cc4F)cc(C(N)=O)nc3C2)CCO1` (single isomer, unassigned) [Example 14-2B], the IC50 is 27.1 nM.
On to `CC(C)(C)n1nncc1CN1CCc2c(-c3c(F)cc(Cl)cc3F)cc(C(N)=O)nc2C1` [Example 1-17, 7-[(1-tert-butyl-1H-1,2,3-triazol-5-yl)methyl]-4-(4-chloro-2,6-difluorophenyl)-5,6,7,8-tetrahydro-1,7-naphthyridine-2-carboxamide], for which the concentration for half-maximal inhibition (IC50) is 7.4 nM.

As a reminder, the IC50 is the point on the concentration scale where inhibition reaches its midpoint.

The values are drawn from patent US10072003B2, “Tetrahydronaphthyridine derivatives as mGluR2-negative allosteric modulators, compositions, and their use” (Merck Sharp & Dohme Corp., priority 2014, dated 2018).
